Assay results reported in patent publication US5439933A (priority 1993, dated 1995).
In brackets after ≈: the same amount, converted by molar mass.

Columns and labels:
Type in all cases: cell-based
[1] = tested on: LoVo human adenocarcinoma cells; assay: Cell proliferation assay (cell counts), LoVo; conditions: 72 h
Procedure: (§1) Tolytoxin and the other new scytophycin compounds are potent anticancer and antifungal agents. The cytotoxicity of tolytoxin and other new scytophycin compounds was determined using a cell proliferation assay, which tested the effect of the compounds on increases in cell numbers.
(§2) Cell lines were grown in plastic dishes (Falcon) in Eagle's basal medium supplemented with 5% newborn calf serum (KB), Fisher's medium supplemented with 10% horse serum (L1210), Dulbecco's modified Eagle's medium supplemented with 5% heat-inactivated fetal calf serum (LoVo), minimal essential medium supplemented with 2% heat-inactivated chicken serum (HEp-2), RPMI-1640 supplemented with 10% heat-inactivated fetal calf serum (T-47D, COLO-201) or 20% heat-inactivated fetal calf serum (HL-60, KATO-III), or McCoy's 5A supplemented with 10% heat-inactivated fetal calf serum (HBL-100). All cell culture media were supplemented with 50 μg/ml gentamycin sulfate. The cultures were incubated at 37° C. in a humidified atmosphere containing 5% carbon dioxide.
(§3) Cultures were exposed to graded concentrations of tolytoxin and reincubated for 72 hours in the presence of tolytoxin. Three dishes were used for each treatment. Cell numbers were determined by hemacytometer counts. The IC50 for each cell line was determined by plotting the logarithm of the tolytoxin concentration versus growth (cell number as a percentage of the control) of the treated cells.
The other new scytophycin compounds are also potent cytotoxins. For example, the IC50 of the scytophycins against KB human epidermoid carcinoma, LoVo human adenocarcinoma, and L1210 murine leukemia were determined using the cell proliferation assay described for tolytoxin.

[2] = tested on: T47-D human ductal carcinoma cells; assay: Cell proliferation assay (cell counts), T47-D; conditions: T47D, Table 5, 72 hours
Procedure: as §1, §2
as §3, with “Three dishes were used for each treatment.” left out

[3] = tested on: HEp-2 human epidermoid carcinoma cells; assay: Cell proliferation assay (cell counts), HEp-2; conditions: Table 5, 72 hours
Procedure: as §1, §2
as §3, with “Three dishes were used for each treatment.” left out

[4] = tested on: Colletotrichum coccodes 1809; assay: Antifungal agar dilution; conditions: Colletotrichum coccodes, 1809, 48 h
Procedure: (§4) The new scytophycins are also useful as antifungal agents. Antimicrobial activity was determined by the agar dilution method. Tolytoxin was dissolved in 95% ethanol for addition to cooled, molten agar. Nystatin was solubilized in DMSO and diluted in distilled water. Appropriate solvent controls were also prepared. Fungal cultures were grown on Saboraud dextrose agar. Assay plates were incubated for 48 hours post-inoculation. Yeasts and filamentous fungi were incubated at 25° C.

Penicillium notatum = assay: Antifungal agar dilution; conditions: Penicillium chrysogenum, 48 h
Procedure: as §4

Aspergillus oryzae = assay: Antifungal agar dilution; conditions: 48 h
Procedure: as §4

[5] = tested on: Calonectria critalarae 1809; assay: Antifungal agar dilution; conditions: 48 h
Procedure: as §4

Rhizoctonia solani 1165 = assay: Antifungal agar dilution; conditions: Rhizoctonia solani, 1165, 48 h
Procedure: as §4

[6] = tested on: Human ovarian carcinoma cells (SKOV3); assay: cells; conditions: SK-OV-3, 48 h, read-out: IC50 SKOV3
Procedure: Human ovarian carcinoma cells (SKOV3) and a subline made multi-drug resistant by slowly increasing vinblastine in the culture medium over the course of many passages (SKVLB) were grown in Earle's basal medium (BME) containing 10% fetal calf serum. The SKVLB cells were maintained in the presence of 1 µg/mL vinblastine. The multi-drug resistant cell line is resistant to adriamycin, vinblastine, actinomycin D, and colchicine.
Cell proliferation was estimated by measurement of protein content of the cultured cells, as described by Skehan et al. (1990). Cells were plated into 24-well plates at approximately 10% confluency in BME and were allowed to attach and recover for at least 24 hours. The cells were then treated with the scytophycins or appropriate control for 48 hours. After the incubation, the medium was removed from each well and cells fixed by addition of 10% (w/v) trichloroacetic acid (TCA) (4° C.). The cells were incubated at 4° C. for one hour and then washed five times with water to remove TCA. The TCA-fixed cells were then stained for 30 minutes with 0.4% (w/v) sulforhodamine B prepared in 1% acetic acid. Following the staining, the cell layers were washed four times with 1% acetic acid. The cell layer was dissolved in 10 mM unbuffered tris-hydroxymethylaminomethane base. Absorbance of the solution was determined at 564 nm. Antiproliferative activity is manifested as decreased production of cellular protein.

[7] = tested on: HL-60 human promyelocytic leukemia cells; assay: Cell proliferation assay (cell counts), HL-60; conditions: Table 5, 72 hours
Procedure: as §1, §2
as §3, with “Three dishes were used for each treatment.” left out

COC1CC2C=CCC(CC(OC)C3(CO3)C(OC)CC(OC)C(C)C(C(C)C(O)C(C)CCC(=O)C(C)C(OC)C(C)/C=C/N(C)C=O)OC(=O)/C=C/C(C)=C/C1O)O2 (stereo not shown) [Tolytoxin, 6-hydroxy-7-O-methylscytophycin B]
IC50 [1]: 8.4 nM | IC50 [2]: 4.9 nM | IC50 [3]: 2.3 nM | MIC [4]: 4 nM (≈ 3.4 ng/mL) | MIC (Penicillium notatum): 0.25 nM (≈ 0.213 ng/mL) | MIC (Aspergillus oryzae): 0.5 nM (≈ 0.425 ng/mL) | MIC [5]: 2 nM (≈ 1.7 ng/mL) | MIC (Rhizoctonia solani 1165): 0.25 nM (≈ 0.213 ng/mL) | IC50 [6]: 25 nM | IC50 [7]: 4.8 nM
